From patent US10736968B2, “Cellular signalling inhibitors, their formulations and methods thereof” (INVICTUS ONCOLOGY PVT. LTD., priority 2016, dated 2020)

Test system: 4T1 breast cancer
Assay: 4T1 breast cancer model (tumor growth, lung metastatic nodules, survival)
Assay type: in vivo, Balb/c mice
Conditions: for number of metastatic nodules in lungs: lungs harvested on day 12
Source text: FIG. 7. Effect of BLN101 on breast tumor growth inhibition. To validate the therapeutic efficacy of BLN101 (as AK750 formulation), we randomly sorted mice bearing 4T1 breast cancer into four groups and treated each group with one of the following: blank vehicle (control); AK750; an antiCSF1 antibody, and BLZ945. Treatment was strated when the tumors reached −75 mm^3 in volume. The day of first injection is considered Day 0). Vehicle-treated animals formed large tumors by Day 12, and consequently were killed. The animals in the other groups were also killed at the same time point to evaluate the effect of the treatments on tumor pathology. […] (b) Changes in body weight were within the acceptable limits.
Later, macrophages are isolated from the tumors and analyzed the cells for expression of markers CD11b+CD206+, CD11b+MHC-II+, CD11b+CD86+ and CD11b+CD80+ on the cells using flow cytometry. […] The tumor-bearing animals are injected with three doses of either Vehicle (for control group), 45 mg/kg of free BLZ-945, 45 mg/kg of BLN101 (in a AK750 formulation), or 25 mg/kg of CSF-1 neutralizing antibody, on day 0, day 4 and day 8. First day of treatment was considered as Day 0. […] Number of metastatic nodules present in the lungs is also quantified. Lungs were harvested from the mice on day 12 following the above treatment, washed with cold PBS followed by which the number of metastatic nodules were counted. […] Later, macrophages are isolated from the tumors and analyzed the cells for expression of markers CD11b+CD206+, CD11b+MHC-II+, CD11b+CD86+ on the cells using flow cytometry. […] SIRPα is a ‘eat-me-not’ signaling, which cancer cells engage with a CD47 ligand, and prevents phagocytosis of the cancer cells. The antibody that inhibits SIRPα was conjugated to the PEG chains on the surface of the AK750 supramolecular nanoparticles. A non-specific IgG was used as controls. […] Furthermore, melanoma-bearing mice is treated with a single dose of SIRPα antibody, AK750 or the SIRPα-AK750. […]

Compound	number of metastatic nodules in lungs	tumor growth / progression (45 mg/kg on day 0, day 4 and day 8)
CNC(=O)c1cc(Oc2ccc3nc(NC4CCCC[C@H]4OC(=O)CCC(=O)O[C@H]4CC[C@@]5(C)C(=CC[C@H]6[C@@H]7CC[C@H](C(C)CCCC(C)C)[C@@]7(C)CC[C@@H]65)C4)sc3c2)ccn1 (stereo in doubt) [BLN101]	complete inhibition of formation of metastatic nodules	
CNC(=O)c1cc(Oc2ccc3nc(N[C@@H]4CCCC[C@H]4O)sc3c2)ccn1 [BLZ-945]	reduction as compared to CSF-1 neutralizing antibody and the vehicle control	decreased tumor growth compared with vehicle-treated animals
